Reference: patent US20230381192A1, “METHODS FOR CONTROLLING AND PREDICTING RECOVERY AFTER NMBA ADMINISTRATION” (Cornell University, priority 2020, published 2023)

Tests used:
[1] = in vivo; cited from earlier work
[2] = preclinical studies; cited from earlier work
Healthy volunteers = assay: Phase I: NMB measured by mechanomyography (twitch T1, TOFR) in healthy volunteers under sevoflurane/N2O; assay type: in vivo, human; conditions: for mean time to 95% T1 recovery: spontaneous recovery
Excerpt: Twitch Height: A peripheral nerve stimulator that applies supramaximal. stimuli to the ulnar nerve at the wrist via surface electrodes was used for neuromuscular monitoring. Following anesthesia induction, single twitch stimuli (0.10 Hz) may be delivered continuously during a 15- to 20- minute period to establish baseline twitch height. Single twitch may continue during and following NMBA administration.
Train-of-Four twitch stimulation pattern ratio (TOFR): The TOP delivers 4 supramaximal electrical impulses that involve four equally strong twitches of the stimulated muscle. A fade of the twitches appears when the neuromuscular blockade increases. Comparison of the fourth twitch (T4) to the first twitch (T1) provides the TOFR.
(Abstract available in the final supplement of the Journal of Anesthesia and Analgesia, May 2020 (Volume 30, Issue pages 73-74), which is incorporated herein by reference. Healthy volunteers (n=34) aged 18 to 55 of either gender gave informed consent to an 1RB-approved Phase I protocol, NMB was measured by mechanomyography during sevoflurane (0.5 MAC)/N20 (70%) anesthesia. Each volunteer received a single IV bolus of RP1000,
An ED95 dose of 0.08 mg/kg was established under sevoflurane anesthesia and a dose of 0.14 mg/kg led to 100% twitch suppression in all subjects. At doses below 0,08 mg/kg, (n=18) 100% twitch inhibition occurred in NONE of the volunteers. […] volunteers, however, who were given doses of 0.08, 0.10, or 0.14 mg/kg, developed 100% block: (n=2 of 6 at 0.08, 6 of 6 at 0.10, and 4 of 4 at 0,14 mg/kg).
During spontaneous recovery from 100% block, in all volunteers, TOE stimulation was applied to the ulnar nerve every 20 seconds and the response of the thumb was monitored continuously until T1 of TOE had recovered to 95% of baseline and TOFR had reached 0.90. The total duration of block was calculated from injection to recovery of T1 to 95 percent of baseline and to recovery of TOFR to 0.90. The 5-95% recovery intervals during recovery from 100% block were measured, Following the completion of data acquisition for all dosage groups, a comparison was made by ANOVA of the 5-95% recovery times resulting after doses of 0.08, 0.10 and 0.14 mg/kg. Recovery data in the 12 volunteers who developed 100% block were then combined to show a single composite recovery pattern. ANOVA was again done to compare the recovery data (5-95% intervals) for the composite group to the corresponding intervals for the separate dosage groups of 0.08, 0.10, and 0,14 mg/kg.

[3] = human, Composite of 0.08, 0.10, 0.14 mg/kg groups (n=12)
[4] = human, dose 0.08 mg/kg, recovery from 100% block
[5] = human, dose 0.1 mg/kg, recovery from 100% block
[6] = human, dose 0.14 mg/kg, recovery from 100% block
[7] = human, doses ≥ED95, approximately

COc1ccc(C[C@@H]2c3cc(OC)c(OC)cc3CC[N@@+]2(C)CCCOC(=O)/C=C/C(=O)OCCC[N@+]2(C)CCc3cc(OC)c(OC)cc3[C@H]2Cc2ccc(OC)c(OC)c2)cc1OC.[Cl-].[Cl-] [RP1000]
potential for bronchoconstrictive activity or histamine release [1]: low potential
time to 100% NMB after administration [2]: ≤ 90 s
Time to maximum T1 recovery (Healthy volunteers; human, 0.08 mg/kg): about 50 minutes
mean time to T4:T1>0.9 (Healthy volunteers; human, 0.08 mg/kg): about 50 minutes
volunteers who developed 100% block (Healthy volunteers; human, 0.08 mg/kg): 2 of 6
Time to maximum T1 recovery (Healthy volunteers; human, 0.10 mg/kg): about 70 minutes
mean time to T4:T1>0.9 (Healthy volunteers; human, 0.10 mg/kg): about 70 minutes
volunteers who developed 100% block (Healthy volunteers; human, 0.10 mg/kg): 6 of 6
mean time from 5% to 95% T1 recovery (Healthy volunteers; human, 0.1 mg/kg and 0.145 mg/kg doses): 35 to 40 min
Time to maximum T1 recovery (Healthy volunteers; human, 0.14 mg/kg): about 70 minutes
mean time to T4:T1>0.9 (Healthy volunteers; human, 0.14 mg/kg): ~80 min
volunteers who developed 100% block (Healthy volunteers; human, 0.14 mg/kg): 4 of 4
Recovery Time, Recovery Interval 5%-95% (Healthy volunteers; [3]): 37.4 ± 6.4 min
Recovery Time, Recovery Interval 25%-75% (Healthy volunteers; [3]): 14.9 ± 3.0 min
Recovery Time, Recovery Interval 5%-95% (Healthy volunteers; [4]): 34.8 ± 12.5 min
Recovery Time, Recovery Interval 25%-75% (Healthy volunteers; [4]): 15.7 ± 8.4 min
Recovery Time, Recovery Interval 5%-95% (Healthy volunteers; [5]): 39.4 ± 6.5 min
Recovery Time, Recovery Interval 25%-75% (Healthy volunteers; [5]): 15.1 ± 2.0 min
Recovery Time, Recovery Interval 5%-95% (Healthy volunteers; [6]): 35.6 ± 3.1 min
Recovery Time, Recovery Interval 25%-75% (Healthy volunteers; [6]): 14.2 ± 0.9 min
twitch suppression (Healthy volunteers; human, dose of 0.14 mg/kg, in all subjects): 100%
volunteers in whom 100% twitch inhibition occurred (Healthy volunteers; human, doses below 0.08 mg/kg (n=18)): NONE
volunteers who developed 100% block (Healthy volunteers; human, doses of 0.08, 0.10, or 0.14 mg/kg pooled): 12 of 14
time to 95% T1 suppression (Healthy volunteers; [7]): 2 to 3 min
time to maximum T1 suppression (Healthy volunteers; [7]): 3 to 5 min
duration of NMB effect (Healthy volunteers; human, injection): intermediate duration
onset of action (Healthy volunteers; human, injection): rapid onset of action
mean time to 95% T1 recovery (Healthy volunteers; human, 0.08 mg/kg): approximately 45 minutes
mean time to 95% T1 recovery (Healthy volunteers; human, 0.10 mg/kg): ~55 min
mean time to 95% T1 recovery (Healthy volunteers; human, 0.14 mg/kg): ~60 min
ED95 dose (Healthy volunteers; human, under sevoflurane anesthesia): 0.08 mg/kg
ED 95 for humans (Healthy volunteers; humans): about 0.077 mg/kg
